From ChEMBL document CHEMBL2390887, “Pyrazole derivatives as inhibitors of arachidonic acid-induced platelet aggregation” (Eur J Med Chem, 2013) come the findings set out here.

The source made the active and inactive calls. The calls are words filed in the database; no cut-off is given here. Where only a bound is given, the exact number is not on record here.

What all share (type): functional
Assay [1] can be described thus: Antiplatelet activity in human platelet rich plasma assessed as inhibition of arachidonic acid-induced platelet aggregation preincubated for 3 mins before arachidonic acid challenge by turbidimetric method.
Assay [2] in a line: Antiplatelet activity in human platelet rich plasma assessed as inhibition of collagen-induced platelet aggregation at 1 uM preincubated for 3 mins before collagen challenge by turbidimetric method.
Assay [3] in a line: (§1) Antiplatelet activity in human platelet rich plasma assessed as inhibition of ADP-induced platelet aggregation at 10 uM preincubated for 3 mins before ADP challenge by turbidimetric method.
The nature of assay [4]: Antiplatelet activity in human platelet rich plasma assessed as inhibition of collagen-induced platelet aggregation at 10 uM preincubated for 3 mins before collagen challenge by turbidimetric method.
Assay [5] is described as follows: (§2) Antiplatelet activity in human platelet rich plasma assessed as inhibition of arachidonic acid-induced platelet aggregation at 10 uM preincubated for 3 mins before arachidonic acid challenge by turbidimetric method.
Assay [6] in a line: (§3) Antiplatelet activity in human platelet rich plasma assessed as inhibition of arachidonic acid-induced platelet aggregation at 1 uM preincubated for 3 mins before arachidonic acid challenge by turbidimetric method.
The test system of assay [7] is Platelet. Described as §1.
Assay [8] relates to Platelet. Described as §3.
Assay [9] in a line: Antiplatelet activity in human platelet rich plasma assessed as inhibition of arachidonic acid-induced platelet aggregation at 100 uM preincubated for 3 mins before arachidonic acid challenge by turbidimetric method.
For assay [10], the system named is Platelet. The description is as §2.

For `Cn1nc(-c2ccc(Cl)cc2)cc1C(=O)N1CCOCC1`, the IC50 (in general, the point on the concentration scale where inhibition reaches its midpoint) in assay [1] is more than 10000 nM.
On to `COc1ccc(NC(=O)c2cc(-c3ccc(Cl)cc3)n(-c3ccc(OC)nn3)n2)cc1`, for which the inhibition – broadly, the share of the control response that was lost under treatment – at 1 µM in assay [2] was 43.6%; in [6] it was 94.2%. Besides, the half-maximal inhibitory concentration (IC50) in assay [1] worked out at 400 nM. Further, the figures for the inhibition at 10 µM in [3], in assay [4] and in assay [5] were 3.92%, 72.1% and 79.9%, respectively.
As to `CC(=O)Oc1ccccc1C(=O)O` [ASPIRIN], in assay [1], the half-maximal inhibitory concentration (IC50) is 7760 nM.
On to `COc1ccc(-n2nc(C(=O)N3CCCCC3)cc2-c2ccc(Cl)cc2)cc1`, for which the IC50 in assay [1] amounted to 7.9 nM.
Turning to `COc1ccc(-n2nc(C(=O)N3CCN(c4ccc(C)cc4)CC3)cc2-c2ccc(Cl)cc2)nn1`, in assay [1], the IC50 turned out to be 4670 nM. Further, the inhibition result with Platelet [7] was “inactive”. Besides, the inhibition at 10 µM in assay [4] worked out at 20.1%; in [5], 97.6%. In assay [6], the inhibition at 1 µM amounted to 3.96%.
For the compound `CCCOc1ccc(OC(=O)c2cc(-c3ccc(Cl)cc3)n(-c3ccc(OC)nn3)n2)cc1`, the inhibition at 1 µM was determined as 32.2% in assay [2] and 3.87% in [6]. The inhibition entry in the assay with Platelet [7] was “inactive”. Further, the figures for the inhibition at 10 µM in assay [4] and in [5] were 61.9% and 93%, respectively.
For `COc1ccc(OC(=O)c2cc(-c3ccc(Cl)cc3)n(-c3ccc(OC)nn3)n2)cc1`, the inhibition entry in the assay on Platelet [7] is “inactive”. The inhibition at 10 µM in assay [4] was found to be 24.2%; in assay [5], 84.2%. Moreover, the inhibition at 1 µM in assay [6] was 6.05%.
For `COc1ccc(-n2nc(C(=O)N3CCOCC3)cc2C)nn1`, in [1], the IC50 was more than 10000 nM.
For the compound `COc1ccc(-n2nc(C(=O)N3CCCC3)cc2-c2ccc(Cl)cc2)nn1`, in [1], the IC50 was determined as 15 nM.
For the compound `COc1ccc(-n2nc(C(=O)Oc3ccc4ccccc4c3)cc2-c2ccc(Cl)cc2)nn1`, the inhibition at 10 µM in assay [3] was found to be 3.34%; in [4], 22.4%; in assay [5], 86.3%. In [6], the inhibition at 1 µM stood at 2.36%.
With `COc1ccc(-n2nc(C(=O)N3CCOCC3)cc2-c2ccc(Cl)cc2)nn1`, the results for the inhibition at 1 µM in assay [2] and in assay [6] were 74.2% and 92.7%, respectively. Besides, the IC50 in assay [1] turned out to be 83 nM. Besides, the inhibition at 10 µM stood at 11.3% in [3], 70.9% in [4] and 94.8% in assay [5].
As to `Cn1nc(-c2ccc(Cl)cc2)cc1C(=O)N1CCCCC1`, in [1], the IC50 is more than 10000 nM.
`COc1ccc(-n2nc(C(=O)Oc3cccnc3Cl)cc2-c2ccc(Cl)cc2)nn1`: the inhibition entry with Platelet [7] and in the assay on Platelet [8] was “inactive” throughout. In addition, the inhibition at 10 µM was 8.49% in assay [4] and 86.5% in assay [5].
For the compound `CS(=O)(=O)c1ccc(-n2nc(C(=O)N3CCOCC3)cc2-c2ccc(Cl)cc2)nn1`, the IC50 in assay [1] is more than 20000 nM.
As to `CS(=O)(=O)c1ccc(-n2nc(C(=O)N3CCCCC3)cc2-c2ccc(Cl)cc2)nn1`, the IC50 in [1] was determined as 19600 nM.
As to `COc1ccc(-n2nc(C(=O)N3CCCC3)cc2-c2ccc(Cl)cc2)cc1`, in assay [1], the IC50 was 5.7 nM.
With `COc1ccc(-n2nc(CCC(=O)N3CCCCC3)cc2-c2ccc(Cl)cc2)nn1`, the IC50 in [1] was found to be 920 nM.
As to `COc1ccc(-n2nc(C(=O)Oc3cccc(C(C)C)c3)cc2-c2ccc(Cl)cc2)nn1`, the inhibition result in the assay on Platelet [7] is “inactive”. The inhibition at 10 µM in assay [4] is 42.3%; in assay [5], 84%. Moreover, the inhibition at 1 µM in [6] was determined as 8.97%.
For the compound `O=C(c1cc(-c2ccc(Cl)cc2)n[nH]1)N1CCOCC1`, the half-maximal inhibitory concentration (IC50) in assay [1] was more than 10000 nM.
As for `COc1ccc(-n2nc(C(=O)Nc3ccncc3)cc2-c2ccc(Cl)cc2)nn1`, the figures for the inhibition at 1 µM in assay [2] and in [6] were 77.6% and 84.9%, respectively. For the same compound, the IC50 in assay [1] was found to be 110 nM. For the same compound, the inhibition at 10 µM was determined as 8.14% in assay [3], 73.6% in assay [4] and 80.5% in assay [5].
Turning to `COc1ccc2c(c1)c(CC(=O)O)c(C)n2C(=O)c1ccc(Cl)cc1` [INDOMETHACIN], the IC50 in [1] turned out to be 1620 nM.
For the compound `CCOC(=O)c1cc(-c2ccc(Cl)cc2)n(-c2ccc(Cl)nn2)n1`, the inhibition at 100 µM in assay [9] came out at 67%.
For `COc1ccc(-c2onc(C(=O)N3CCOCC3)c2-c2ccc(Cl)cc2)cc1`, the IC50 in assay [1] came out at 18400 nM.
On to `COc1ccc(-n2nc(C(=O)N3CCCCC3)cc2-c2ccc(Cl)cc2)nn1`, for which the inhibition at 1 µM in [2] worked out at 76.8%; in assay [6], 92.9%. For the same compound, in assay [1], the half-inhibitory concentration (IC50) was determined as 41 nM. Further, in the assay with Platelet [7], the inhibition result was “inactive”. The inhibition at 10 µM in [4] is 71.1%; in [5] it was 94.8%.
On to `COc1ccc(-n2nc(C(=O)N3CCN(c4ncccn4)CC3)cc2-c2ccc(Cl)cc2)nn1`, for which the inhibition at 10 µM in [3] stood at 2.7%; in assay [4] it was 22.9%. Also, the inhibition result with Platelet [10] and in the assay with Platelet [8] was “inactive” throughout.
Turning to `COc1ccc(-n2nc(C(=O)OCCC(C)C)cc2-c2ccc(Cl)cc2)nn1`, the results for the inhibition at 1 µM in assay [2] and in assay [6] were 34.2% and 19%, respectively. In addition, the IC50 in [1] was 1330 nM. For the same compound, the inhibition at 10 µM is 6.77% in assay [3], 66.7% in assay [4] and 91.2% in assay [5].
Turning to `COc1ccc(-n2nc(C(=O)Oc3ccc(C)cc3)cc2-c2ccc(Cl)cc2)nn1`, the inhibition entry in the assay on Platelet [7] is “inactive”. The inhibition at 10 µM in [4] is 48.5%; in assay [5], 95%. The inhibition at 1 µM in [6] turned out to be 23.6%.
Turning to `COc1ccc(-n2nc(C(=O)N3CCOCC3)cc2-c2ccc(Cl)cc2)cc1`, the 50% inhibitory concentration (IC50) in [1] was 7.3 nM.
For `O=C(c1cc(-c2ccc(Cl)cc2)n(-c2ccc(=O)[nH]n2)n1)N1CCOCC1`, the IC50 in assay [1] was determined as 12600 nM.
Turning to `COc1ccc(-n2nc(C(=O)Oc3ccc(-n4ccnc4)cc3)cc2-c2ccc(Cl)cc2)nn1`, the inhibition entry in the assay on Platelet [7] was “inactive”. Moreover, the values for the inhibition at 10 µM in [4] and in assay [5] were 2.11% and 90%, respectively. For the same compound, the inhibition at 1 µM in assay [6] came to 5.25%.
Take `COc1ccc(-n2nc(C(=O)Nc3ccc(Cl)cc3)cc2-c2ccc(Cl)cc2)nn1`: the results for the inhibition at 1 µM in assay [2] and in [6] were 25.7% and 80.9%, respectively. Moreover, the half-maximal inhibitory concentration (IC50) in [1] worked out at 610 nM. The inhibition at 10 µM was 7.93% in [3], 70.5% in [4] and 74.3% in assay [5].
For `COc1ccc(-n2nc(CCC(=O)N3CCOCC3)cc2-c2ccc(Cl)cc2)nn1`, in [1], the IC50 was determined as 1080 nM.
On to `COc1ccc(-n2nc(C(=O)N3CCN(c4ccc(F)cc4)CC3)cc2-c2ccc(Cl)cc2)nn1`, for which the inhibition result with Platelet [7] and in the assay with Platelet [8] was “inactive” each time. Besides, the inhibition at 10 µM in assay [4] worked out at 32.2%; in assay [5], 79.7%.
Consider `O=C(c1cc(-c2ccc(Cl)cc2)n[nH]1)N1CCCCC1`, for which, in assay [1], the IC50 is more than 10000 nM.
Consider `COc1ccc(-n2nc(C(=O)N3CCN(c4ccc(C(F)(F)F)cn4)CC3)cc2-c2ccc(Cl)cc2)nn1`, for which the IC50 in [1] turned out to be 5490 nM. The inhibition at 10 µM in assay [3] is 6.8%; in assay [4], 16%; in assay [5] it was 65.5%. The inhibition at 1 µM in [6] worked out at 10.9%.
Take `O=C(c1cc(-c2ccc(Cl)cc2)n(-c2ccc(=O)[nH]n2)n1)N1CCCCC1`: the IC50 in assay [1] was 2090 nM.
For the compound `COc1ccc(-n2nc(C(=O)N3CCCCC3)cc2C)nn1`, in assay [1], the half-inhibitory concentration (IC50) was more than 10000 nM.
For the compound `COc1ccc(-c2onc(C(=O)N3CCCCC3)c2-c2ccc(Cl)cc2)cc1`, in assay [1], the IC50 was determined as 5030 nM.
With `COc1ccc(-n2nc(C(=O)Oc3ccc(C4CCCC4)cc3)cc2-c2ccc(Cl)cc2)nn1`, the inhibition result with Platelet [7] and with Platelet [8] was “inactive” throughout. Further, the inhibition at 10 µM amounted to 19.9% in assay [4] and 86.7% in [5].
